Measurements published in patent US20240083851A1 (priority 2020, published 2024).

Assays:
[1] = system: ovariectomized (OVX) mice; experiment: Ovariectomized (OVX) mice model of osteoporosis, femur bone parameters; assay type: in vivo; conditions: daily for 10 weeks; for BMD: femur
Excerpt: (§1) An ability of LAD to treat osteoporosis was confirmed in an animal model of ovariectomized (OVX) mice commonly used as an animal model of osteoporosis.
(§2) As the positive control, parathyroid hormone (PTH)-based Forteo (Eli Lilly) used as an osteoporosis therapeutic agent through an osteogenesis-promoting mechanism, and alendronate-based Fosamax (Merck) serving as a bone resorption inhibitor, were subcutaneously administered. As the negative control, water (H2O) was orally administered, and LAD was orally administered at a concentration of 5 or 30 mg/kg (FIG. 8A). After the drug was administered daily for 10 weeks, the bone mineral density (BMD) was measured.

RUNX2 [2] = experiment: RUNX2 expression in femurs of ovariectomized mice; assay type: in vivo; conditions: LAD oral, daily for 10 weeks
Excerpt: as §1, §2
In Table 1, BMD represents bone mineral density, TV represents total volume, BV represents bone volume, Tb.Th represents trabecular thickness, and Tb.N represents trabecular number.

MSCs = experiment: Osteoblast differentiation of MSCs with LAD plus kinase inhibitor (Alizarin Red); assay type: cell-based, human; conditions: LAD 1 μM combined with inhibitor (1 μM) of ERK, P38 or Akt, 3 weeks, compared to LAD alone
Procedure: To further study the mechanism by which LAD differentiates MSCs into osteoblasts, an experiment was performed using a kinase inhibitor.
After MSCs were cultured, the MSCs were simultaneously treated with a kinase inhibitor (1 μM) and LAD (1 μM). Next day, the medium was exchanged, and the MSCs were simultaneously treated again with the kinase inhibitor and LAD. This procedure was repeated for 3 weeks, and the MSCs were than stained with Alizarin Red.

BMP-2 = experiment: Change in expression of BMP2 in MSCs (antibody staining, fluorescence microscope); assay type: cell-based, human; conditions: 0.001 μM (1 nM), once a day for 7 and 14 days, increased with concentration up to 0.1 μM
Excerpt: (§3) Runt-related transcription factor 2 (RUNX2; core-binding factor alpha, Cbfa1) is the most important transcriptional regulatory factor for osteogenesis, and is known to be involved in osteoblast differentiation, matrix generation, and mineralization during the osteogenesis (Bruderer M, et al., Eur Cell Mater. 2014). Also, RUNX2 itself may be regulated by a bone morphogenetic protein (BMP), which is a type of cytokine (Sun J, et al., Mol Med Rep. 2015). Accordingly, it was confirmed whether LAD promotes the expression of an osteogenesis-related specific factor to induce osteogenesis.
(§4) MSCs were seeded in a 24-well plate at a concentration of 3×10^4 cells/well, and cultured for 24 hours. From the next day, the MSCs were treated with different concentrations (0.001 μM, 0.01 μM, and 0.1 μM) of LAD once a day for 7 days and 14 days. After the experiment was completed, the MSCs were stained with RUNX2 and BMP-2 antibodies, and observed using a fluorescence microscope.

[3] = system: phosphorylated forms of 43 kinases (ERK, Akt, WNK1); experiment: Phosphokinase antibody array in MSCs; assay type: cell-based, human; conditions: LAD 1 μM, 24 hours, compared to control DMSO
Procedure: To study a mechanism by which LAD differentiates MSCs into osteoblasts, related signaling was investigated.
MSCs cultured in an experimental DMEM culture medium were treated with LAD (1 μM) or the control compound (DMSO), and cultured for 24 hours. The cells were recovered, and an experiment was then performed according to a method specified in a phosphokinase antibody array kit (R&D Systems) containing antibodies that specifically recognize phosphorylated forms of 43 kinases. Then, samples were analyzed using an ImageJ (NIH, USA) program.

[4] = system: phosphorylated ERK (pERK); experiment: ERK phosphorylation in MSCs after LAD treatment; assay type: cell-based, human
Procedure: Accordingly, the level of phosphorylated ERK according to time elapsed after MSCs were treated with LAD was determined.
Also, to determine whether LAD induces the ERK phosphorylation for a long period, MSCs were treated with various concentrations (0.001, 0.01, and 0.1 μM) of LAD, and the level of phosphorylated ERK (pERK) was checked after 7 days and 14 days. […] In particular, it was confirmed that the level of phosphorylated ERK (pERK) increased to a level similar to that of the positive control (OIM) even at a low concentration.

RUNX2 [5] = experiment: Change in expression of RUNX2 in MSCs (antibody staining, fluorescence microscope); assay type: cell-based, human; conditions: 0.001 μM (1 nM), once a day for 7 and 14 days, increased with concentration up to 0.1 μM
Excerpt: as §3, §4

RUNX2 [6] = experiment: Effect of ERK inhibitor on increase in RUNX2 expression by LAD in MSCs; assay type: cell-based, human
Procedure: ERK may induce the phosphorylation of RUNX2 to increase transcriptional activity and may be involved in stability to increase an amount of RUNX2 protein (Greenblatt et al., MB, Annu Rev Cell Dev Biol. 2013). Therefore, an increase in ERK phosphorylation by LAD may induce RUNX2 expression so that LAD can be involved in the differentiation of MSCs into osteoblasts. To verify this, an expression level of RUNX2 was determined after MSCs were treated with a combination of LAD (0.1 μM) and the ERK inhibitor PD98059 (50 μM).

osteocalcin = experiment: Change in expression of osteocalcin in MSCs (antibody staining, fluorescence microscope); assay type: cell-based, human; conditions: 0.001 μM, within 7 days, level similar to OIM-treated group
Procedure: Osteocalcin is expressed only in osteoblasts (Lee et al., Cell 2007), and is used as a useful biomarker for osteogenesis (Bharadwaj et al., Osteoporosis International., 2009).
An experiment was performed in the same manner as described in Experimental Example 1-2, and MSCs were then stained with an osteocalcin antibody, and observed using a fluorescence microscope.

[7] = OVX mice, positive control subcutaneous

CC[C@H](C)[C@H](NC(=O)[C@H](CCC(=O)O)NC(=O)[C@H](CO)NC(=O)[C@@H](NC(=O)[C@@H](N)CO)C(C)C)C(=O)N[C@@H](CCC(N)=O)C(=O)N[C@@H](CC(C)C)C(=O)N[C@@H](CCSC)C(=O)N[C@@H](Cc1cnc[nH]1)C(=O)N[C@@H](CC(N)=O)C(=O)N[C@@H](CC(C)C)C(=O)NCC(=O)N[C@@H](CCCCN)C(=O)N[C@@H](Cc1cnc[nH]1)C(=O)N[C@@H](CC(C)C)C(=O)N[C@@H](CC(N)=O)C(=O)N[C@@H](CO)C(=O)N[C@@H](CCSC)C(=O)N[C@@H](CCC(=O)O)C(=O)N[C@@H](CCCN=C(N)N)C(=O)N[C@H](C(=O)N[C@@H](CCC(=O)O)C(=O)N[C@@H](Cc1c[nH]c2ccccc12)C(=O)N[C@@H](CC(C)C)C(=O)N[C@@H](CCCN=C(N)N)C(=O)N[C@@H](CCCCN)C(=O)N[C@@H](CCCCN)C(=O)N[C@@H](CC(C)C)C(=O)N[C@@H](CCC(N)=O)C(=O)N[C@@H](CC(=O)O)C(=O)N[C@H](C(=O)N[C@@H](Cc1cnc[nH]1)C(=O)N[C@@H](CC(N)=O)C(=O)N[C@@H](Cc1ccccc1)C(=O)O)C(C)C)C(C)C [Forteo, reference compound]
BV [1, 7]: 0.8791 mm^3 | BV/TV [1, 7]: 5.735% | TV [1, 7]: 15.43 mm^3 | Tb. N [1, 7]: 0.8018 mm | Tb. Th [1, 7]: 0.07112 1/mm | BMD [1, 7]: 0.2013 g/mL

NCCCC(O)(P(=O)(O)O)P(=O)(O)O [Fosamax, reference compound]
BV [1, 7]: 1.017 mm^3 | BV/TV [1, 7]: 6.521% | TV [1, 7]: 15.51 mm^3 | Tb. N [1, 7]: 0.9286 mm | Tb. Th [1, 7]: 0.06994 1/mm | BMD [1, 7]: 0.2145 g/mL

CCN1C[C@]2(OC(=O)c3ccccc3NC(C)=O)CC[C@H](OC)C34C1C(C[C@@H]32)C(=O)C[C@H](OC)[C@H]1C[C@@H]4C(=O)[C@H]1OC [LAD, (3S,6S,7S,9S,11S,16S)-1-ethyl-6,9,11-trimethoxy-8,13-dioxododecahydro-2H-3,6a,14-(epiethane[1,1,2]triyl)-7,10-methanocyclodeca[b]azocin-3(4H)-yl 2-acetaminobenzoate]
expression of RUNX2 in femurs (RUNX2 [2]): significantly increased | osteoblast differentiation ability of LAD (Alizarin Red) (MSCs): inhibited | BV ([1]; OVX mice, LAD 5 mg/kg oral): 1.009 mm^3 | BV/TV ([1]; OVX mice, LAD 5 mg/kg oral): 6.422% | TV ([1]; OVX mice, LAD 5 mg/kg oral): 15.6 mm^3 | Tb. N ([1]; OVX mice, LAD 5 mg/kg oral): 0.8775 mm | Tb. Th ([1]; OVX mice, LAD 5 mg/kg oral): 0.205 1/mm | BMD ([1]; OVX mice, LAD 5 mg/kg oral): 0.2066 g/mL | BV ([1]; OVX mice, LAD 30 mg/kg oral): 1.17 mm^3 | BV/TV ([1]; OVX mice, LAD 30 mg/kg oral): 7.036% | TV ([1]; OVX mice, LAD 30 mg/kg oral): 16.58 mm^3 | Tb. N ([1]; OVX mice, LAD 30 mg/kg oral): 0.9485 mm | Tb. Th ([1]; OVX mice, LAD 30 mg/kg oral): 0.0739 1/mm | BMD ([1]; OVX mice, LAD 30 mg/kg oral): 0.2168 g/mL | bone mineral density compared to the negative control ([1]; OVX mice, LAD 5 or 30 mg/kg oral, versus water): significantly increased | effect on bone mineral density compared with Forteo ([1]; OVX mice, LAD oral versus Forteo subcutaneous): significantly superior to that of Forteo | osteogenesis in the femurs (tissue staining) ([1]; ovariectomized mice, LAD oral): induced osteogenesis | expression of BMP-2 (BMP-2): strongly induced | phosphorylation of signaling molecules such as ERK, Akt, WNK1 [3]: strongly increased | level of phosphorylated ERK (pERK) ([4]; MSCs, 0.001, 0.01 and 0.1 μM LAD, after 7 days and 14 days, similar to OIM even at low concentration): significantly increased | level of phosphorylated ERK (pERK) ([4]; MSCs, 24 hours after LAD treatment): increased | level of phosphorylated ERK (pERK) ([4]; MSCs, within 30 minutes after LAD treatment): significantly increased | expression of RUNX2 (RUNX2 [5]): strongly induced | expression of RUNX2 (RUNX2 [6]; LAD 0.1 μM alone, within 12 hours (same at 24 hours)): significantly increased | expression of osteocalcin (osteocalcin): strongly induced

COc1cccc(-c2cc(=O)c3ccccc3o2)c1N [PD98059, reference compound]
expression of RUNX2 (RUNX2 [6]; combination of LAD 0.1 μM and PD98059 50 μM, 12 hours (same at 24 hours)): significantly decreased
